From ChEMBL document CHEMBL4251695, “Data Sets Representative of the Structures and Experimental Properties of FDA-Approved Drugs” (ACS Med Chem Lett, 2018)

Assays:
Assay type in all cases: ADME, organism-based
Conditions in all cases: in vivo
Homo sapiens = organism: Homo sapiens; test: Half life in human
[1] = Clearance in human
[2] = Cmax in human

COc1cc2c(cc1OC)[C@@H](Cc1cc(OC)c(OC)c(OC)c1)[N+](C)(CCCOC(=O)CC/C=C/CCC(=O)OCCC[N+]1(C)CCc3cc(OC)c(OC)cc3[C@H]1Cc1cc(OC)c(OC)c(OC)c1)CC2 (some centres undefined)
t1/2 (Homo sapiens): 2 min

CCCCC[C@H](O)/C=C/[C@H]1[C@H](O)CC(=O)[C@@H]1CCCCCCC(=O)O [ALPROSTADIL]
clearance [1]: 115000 mL/min

CC(C)C[C@H]1C(=O)N2CCC[C@H]2[C@]2(O)O[C@](NC(=O)[C@@H]3C=C4c5cccc6[nH]c(Br)c(c56)C[C@H]4N(C)C3)(C(C)C)C(=O)N12 [BROMOCRIPTINE]
Cmax [2]: 0.711 nM

Nc1ccn([C@@H]2O[C@H](CO)[C@@H](O)[C@@H]2O)c(=O)n1 [CYTARABINE]
clearance [1]: 0.233 mL/min
